# Like-named read-outs stand apart in the source and are kept apart here.
# Assay: Plasma pharmacokinetics after a single subcutaneous administration of LEN
# Type: in vivo, rhesus macaques
# Conditions: male, rhesus monkey, plasma; for concentration at 9 week: week 9 post dose; for concentration at 10 week: week 10 post dose; for concentration at 11 week: week 11 post dose; for concentration at 12 week: week 12 post dose; for concentration at 13 week: week 13 post dose; for concentration at 14 week: week 14 post dose; for concentration at 15 week: week 15 post dose; for concentration at 16 week: week 16 post dose; for concentration at 17 weeks post challenge: week 17 post challenge; for concentration at 18 weeks post challenge: week 18 post challenge; for concentration at 0 weeks post challenge: week 0 post challenge; for concentration at 1 weeks post challenge: week 1 post challenge; for concentration at 2 weeks post challenge: week 2 post challenge; for concentration at 3 weeks post challenge: week 3 post challenge; for concentration at 4 weeks post challenge: week 4 post challenge; for concentration at 5 weeks post challenge: week 5 post challenge; for concentration at 6 weeks post challenge: week 6 post challenge; for concentration at 7 weeks post challenge: week 7 post challenge; for concentration at 0.14 week / concentration at 0.43 week / concentration at 1 week / concentration at 2 week / concentration at 17 week / concentration at 18 week / concentration at 19 week / concentration at 20 week / concentration at 21 week / concentration at 22 week / concentration at 23 week / concentration at 24 week / concentration at 25 week: Indian-origin, outbred; for concentration at 0.14 week: week 0.14 post dose; for concentration at 0.43 week: week 0.43 post dose; for concentration at 1 week: week 1 post dose; for concentration at 2 week: week 2 post dose; for concentration at 17 week: week 17 post dose; for concentration at 18 week: week 18 post dose; for concentration at 19 week: week 19 post dose; for concentration at 20 week: week 20 post dose; for concentration at 21 week: week 21 post dose; for concentration at 22 week: week 22 post dose; for concentration at 23 week: week 23 post dose; for concentration at 24 week: week 24 post dose; for concentration at 25 week: week 25 post dose; for half-life: sc; for concentration at 3 weeks: week 3 post dose; for concentration at 4 weeks: week 4 post dose; for concentration at 5 weeks: week 5 post dose; for concentration at 6 weeks: week 6 post dose
# Method: All animals were housed at Bioqual Inc. For the in vivo SHIV stock titration study, 8 untreated outbred Indian-origin male rhesus macaques aged 3–5 years were challenged intrarectally per round for a total of 5 challenge rounds using increasing virus doses ranging from 0.625 to 100 TCID50, with the 100 TCID50 round performed twice for increased resolution (Supplemental Table 2). Plasma viral load was measured to confirm the infection status. […] Injection sites were monitored daily by veterinary staff for 2 weeks and then weekly through the end of study. On week 7, 11 animals were challenged by the intrarectal route with 1 mL RPMI containing 100 TCID50 SHIV-SF162P3. Whole blood was collected and processed into plasma and PBMCs as necessary for the assessment of routine hematology and clinical chemistry, viral load analysis, serology, and the bioanalysis of drug levels. Animals were considered protected if they remained SHIV negative by a plasma PCR assay and seronegative by enzyme immunoassay through week 10 after challenge.
# Rhesus plasma samples were stored frozen at –80°C and thawed, and a 50 μL aliquot of each was treated with 200 μL acetonitrile containing an internal standard. After precipitation of the protein component, a 100 μL aliquot of the supernatant was transferred to a clean 96-well plate and mixed with 200 μL water. A 10 μL aliquot of the above solution was then injected into a Q-Exactive high resolution mass spectrometer from Thermo Electron with electrospray ionization in positive mode.
# [1] = Indian-origin (outbred), subcutaneous, 50 mg/kg, Plasma LEN (Mean), 50 mg/kg sc
# [2] = Indian-origin (outbred), subcutaneous, 50 mg/kg, Plasma LEN, animal CO92, 50 mg/kg
# [3] = Indian-origin (outbred), subcutaneous, 50 mg/kg, Plasma LEN, animal V411, 50 mg/kg
# [4] = Indian-origin (outbred), subcutaneous, 50 mg/kg, Plasma LEN, animal V430, 50 mg/kg
# [5] = Indian-origin (outbred), subcutaneous, 50 mg/kg, Plasma LEN, animal V470, 50 mg/kg
# [6] = Indian-origin (outbred), subcutaneous, 75 mg/kg, Plasma LEN (Mean), 75 mg/kg sc
# [7] = Indian-origin (outbred), subcutaneous, 75 mg/kg, Plasma LEN, animal CP67, 75 mg/kg
# [8] = Indian-origin (outbred), subcutaneous, 75 mg/kg, Plasma LEN, animal V417, 75 mg/kg
# [9] = Indian-origin (outbred), subcutaneous, 75 mg/kg, Plasma LEN, animal V426, 75 mg/kg
# [10] = Indian-origin (outbred), subcutaneous, 75 mg/kg, Plasma LEN, animal V435, 75 mg/kg
# [11] = subcutaneous, 5 mg/kg, Plasma LEN (Mean), 5 mg/kg sc
# [12] = subcutaneous, 10 mg/kg, Plasma LEN (Mean), 10 mg/kg sc
# [13] = subcutaneous, 20 mg/kg, Plasma LEN (Mean), 20 mg/kg sc
# [14] = subcutaneous, 50 mg/kg, Plasma LEN (Mean), 50 mg/kg sc
# [15] = subcutaneous, 75 mg/kg, Plasma LEN (Mean), 75 mg/kg sc
# [16] = outbred Indian-origin, subcutaneous, 5 mg/kg, Plasma LEN (Mean), 5 mg/kg sc
# [17] = outbred Indian-origin, subcutaneous, 10 mg/kg, Plasma LEN (Mean), 10 mg/kg sc
# [18] = outbred Indian-origin, subcutaneous, 20 mg/kg, Plasma LEN (Mean), 20 mg/kg sc
# [19] = outbred Indian-origin, subcutaneous, 50 mg/kg, Plasma LEN (Mean), 50 mg/kg sc
# [20] = outbred Indian-origin, subcutaneous, 75 mg/kg, Plasma LEN (Mean), 75 mg/kg sc
# [21] = outbred Indian-origin, 50 mg/kg sc, mean ± SD
smiles,measurement,setting,value
"CC(C)(C#Cc1ccc(-c2ccc(Cl)c3c(NS(C)(=O)=O)nn(CC(F)(F)F)c23)c([C@H](Cc2cc(F)cc(F)c2)NC(=O)Cn2nc(C(F)(F)F)c3c2C(F)(F)[C@@H]2C[C@H]32)n1)S(C)(=O)=O [LEN, Lenacapavir]",concentration at 9 week,[1],0.0517 µM
same,concentration at 10 week,[1],0.0487 µM
same,concentration at 11 week,[1],0.0455 µM
same,concentration at 12 week,[1],0.0379 µM
same,concentration at 13 week,[1],0.0379 µM
same,concentration at 14 week,[1],0.021 µM
same,concentration at 15 week,[1],0.0184 µM
same,concentration at 16 week,[1],0.0222 µM
same,concentration at 17 weeks post challenge,[2],0.0136 µM
same,concentration at 18 weeks post challenge,[2],0.0131 µM
same,concentration at 17 weeks post challenge,[3],0.00222 µM
same,concentration at 18 weeks post challenge,[3],0.002 µM
same,concentration at 16 weeks post challenge,"Indian-origin (outbred), subcutaneous, 50 mg/kg, Plasma LEN, animal V430, 50 mg/kg, week 16 post challenge",0.00124 µM
same,concentration at 17 weeks post challenge,[4],0.001 µM
same,concentration at 18 weeks post challenge,[4],0.001 µM
same,concentration at 17 weeks post challenge,[5],0.00855 µM
same,concentration at 18 weeks post challenge,[5],0.0105 µM
same,concentration at 8 week,"Indian-origin (outbred), subcutaneous, 75 mg/kg, Plasma LEN (Mean), 75 mg/kg sc, week 8 post dose",0.055 µM
same,concentration at 9 week,[6],0.0726 µM
same,concentration at 10 week,[6],0.098 µM
same,concentration at 11 week,[6],0.0713 µM
same,concentration at 12 week,[6],0.0535 µM
same,concentration at 13 week,[6],0.0738 µM
same,concentration at 14 week,[6],0.0379 µM
same,concentration at 15 week,[6],0.0246 µM
same,concentration at 16 week,[6],0.0309 µM
same,concentration at 0 weeks post challenge,[7],0.154 µM
same,concentration at 1 weeks post challenge,[7],0.0954 µM
same,concentration at 2 weeks post challenge,[7],0.136 µM
same,concentration at 3 weeks post challenge,[7],0.144 µM
same,concentration at 4 weeks post challenge,[7],0.0881 µM
same,concentration at 5 weeks post challenge,[7],0.0878 µM
same,concentration at 6 weeks post challenge,[7],0.0976 µM
same,concentration at 7 weeks post challenge,[7],0.0465 µM
same,concentration at 0 weeks post challenge,[8],0.158 µM
same,concentration at 1 weeks post challenge,[8],0.0439 µM
same,concentration at 2 weeks post challenge,[8],0.0525 µM
same,concentration at 3 weeks post challenge,[8],0.0886 µM
same,concentration at 4 weeks post challenge,[8],0.069 µM
same,concentration at 5 weeks post challenge,[8],0.0488 µM
same,concentration at 6 weeks post challenge,[8],0.0573 µM
same,concentration at 7 weeks post challenge,[8],0.0439 µM
same,concentration at 0 weeks post challenge,[9],0.177 µM
same,concentration at 1 weeks post challenge,[9],0.068 µM
same,concentration at 2 weeks post challenge,[9],0.0897 µM
same,concentration at 3 weeks post challenge,[9],0.144 µM
same,concentration at 4 weeks post challenge,[9],0.117 µM
same,concentration at 5 weeks post challenge,[9],0.0682 µM
same,concentration at 6 weeks post challenge,[9],0.132 µM
same,concentration at 7 weeks post challenge,[9],0.0574 µM
same,concentration at 0 weeks post challenge,[10],0.0282 µM
same,concentration at 1 weeks post challenge,[10],0.0125 µM
same,concentration at 2 weeks post challenge,[10],0.0124 µM
same,concentration at 3 weeks post challenge,[10],0.0148 µM
same,concentration at 4 weeks post challenge,[10],0.0112 µM
same,concentration at 5 weeks post challenge,[10],0.00922 µM
same,concentration at 6 weeks post challenge,[10],0.00859 µM
same,concentration at 0.14 week,[11],0.00976 µM
same,concentration at 0.43 week,[11],0.00572 µM
same,concentration at 1 week,[11],0.00282 µM
same,concentration at 2 week,[11],0.00296 µM
same,concentration at 0.14 week,[12],0.0199 µM
same,concentration at 0.43 week,[12],0.0134 µM
same,concentration at 1 week,[12],0.00688 µM
same,concentration at 2 week,[12],0.00858 µM
same,concentration at 0.14 week,[13],0.0413 µM
same,concentration at 0.43 week,[13],0.0178 µM
same,concentration at 1 week,[13],0.00923 µM
same,concentration at 2 week,[13],0.0166 µM
same,concentration at 0.14 week,[14],0.196 µM
same,concentration at 0.43 week,[14],0.079 µM
same,concentration at 1 week,[14],0.0565 µM
same,concentration at 2 week,[14],0.0871 µM
same,concentration at 17 week,[14],0.0221 µM
same,concentration at 18 week,[14],0.017 µM
same,concentration at 19 week,[14],0.0111 µM
same,concentration at 20 week,[14],0.00852 µM
same,concentration at 21 week,[14],0.00649 µM
same,concentration at 22 week,[14],0.00723 µM
same,concentration at 23 week,[14],0.00576 µM
same,concentration at 24 week,[14],0.00632 µM
same,concentration at 25 week,[14],0.00661 µM
same,concentration at 0.14 week,[15],0.498 µM
same,concentration at 0.43 week,[15],0.223 µM
same,concentration at 1 week,[15],0.162 µM
same,concentration at 2 week,[15],0.213 µM
same,concentration at 17 week,[15],0.0245 µM
same,concentration at 18 week,[15],0.0209 µM
same,concentration at 19 week,[15],0.0162 µM
same,concentration at 20 week,[15],0.0166 µM
same,concentration at 21 week,[15],0.0123 µM
same,concentration at 22 week,[15],0.00935 µM
same,concentration at 23 week,[15],0.0103 µM
same,concentration at 24 week,[15],0.0118 µM
same,concentration at 25 week,[15],0.0116 µM
same,half-life,"outbred Indian-origin, 5-75 mg/kg sc, read-out: plasma drug half-life",14 to 56 days
same,half-life,"outbred Indian-origin, single sc dosing, range over 5-75 mg/kg groups, read-out: half-life",17 to 53 days
same,concentration at 3 weeks,[16],0.00423 µM
same,concentration at 4 weeks,[16],0.00414 µM
same,concentration at 5 weeks,[16],0.006 µM
same,concentration at 6 weeks,[16],0.00442 µM
same,concentration at 7 weeks,"outbred Indian-origin, subcutaneous, 5 mg/kg, Plasma LEN (Mean), 5 mg/kg sc, week 7 post dose",0.00529 µM
same,concentration at 3 weeks,[17],0.0114 µM
same,concentration at 4 weeks,[17],0.0102 µM
same,concentration at 5 weeks,[17],0.0128 µM
same,concentration at 6 weeks,[17],0.00732 µM
same,concentration at 7 weeks,"outbred Indian-origin, subcutaneous, 10 mg/kg, Plasma LEN (Mean), 10 mg/kg sc, week 7 post dose",0.0101 µM
same,concentration at 3 weeks,[18],0.0213 µM
same,concentration at 4 weeks,[18],0.0239 µM
same,concentration at 5 weeks,[18],0.0301 µM
same,concentration at 6 weeks,[18],0.0267 µM
same,concentration at 7 weeks,"outbred Indian-origin, subcutaneous, 20 mg/kg, Plasma LEN (Mean), 20 mg/kg sc, week 7 post dose",0.0274 µM
same,concentration at 3 weeks,[19],0.0924 µM
same,concentration at 4 weeks,[19],0.0853 µM
same,concentration at 5 weeks,[19],0.0806 µM
same,concentration at 6 weeks,[19],0.0719 µM
same,concentration at 7 weeks,"outbred Indian-origin, subcutaneous, 50 mg/kg, Plasma LEN (Mean), 50 mg/kg sc, week 7 post dose",0.103 µM
same,concentration at 3 weeks,[20],0.126 µM
same,concentration at 4 weeks,[20],0.0958 µM
same,concentration at 5 weeks,[20],0.0899 µM
same,concentration at 6 weeks,[20],0.0651 µM
same,concentration at 7 weeks,"outbred Indian-origin, subcutaneous, 75 mg/kg, Plasma LEN (Mean), 75 mg/kg sc, week 7 post dose",0.129 µM
same,concentration at 7 weeks,"outbred Indian-origin, subcutaneous, LEN exposures at the time of challenge, 11 challenged animals, week 7 postdose",0.018 to 0.177 µM
same,AUC(0-t),"outbred Indian-origin, 5 mg/kg sc, mean ± SD",9.3 ± 1.9 µM·h
same,AUC(0-inf),[21],243 ± 70 µM·h
same,AUC(0-t),[21],179 ± 23 µM·h
same,Cmax,[21],0.2 ± 0.074 µM
